From the NIST ThermoML archive (doi:10.1016/j.jct.2010.08.006)

What was measured:
[1] = 101.33 kPa, Liquid, Vibrating tube method
[2] = xn = mol fraction of the nth substance listed; conditions: 101 kPa, Liquid, Vibrating tube method

C1CCOC1 [tetrahydrofuran]
[1]
Conditions | mass density [kg/m3]
278.15 K | 903.71
288.15 K | 892.94
298.15 K | 882.04
308.15 K | 871.01
318.15 K | 859.84

C1CCOC1 [tetrahydrofuran] + O
mass density [kg/m3], [2]
Conditions | 278.15 K | 288.15 K | 298.15 K | 308.15 K | 318.15 K
x2 = 0.001775 | 903.78 | 893.01 | 882.11 | 871.08 | 859.91
x2 = 0.003887 | 903.87 | 893.1 | 882.19 | 871.16 | 859.99
x2 = 0.005362 | 903.93 | 893.16 | 882.25 | 871.23 | 860.05
x2 = 0.007677 | 904.02 | 893.25 | 882.35 | 871.32 | 860.15
x2 = 0.01096 | 904.16 | 893.38 | 882.48 | 871.45 | 860.28
x2 = 0.0142 | 904.29 | 893.52 | 882.61 | 871.58 | 860.41
x2 = 0.01729 | 904.42 | 893.65 | 882.74 | 871.71 | 860.53
x2 = 0.01971 | 904.52 | 893.75 | 882.84 | 871.81 | 860.63
x2 = 0.02568 | 904.78 | 894 | 883.09 | 872.06 | 860.88
x2 = 0.03393 | 905.13 | 894.35 | 883.44 | 872.41 | 861.22
x2 = 0.04278 | 905.52 | 894.74 | 883.83 | 872.79 | 861.6

[2H]O[2H] [water-d2] + C1CCOC1
mass density [kg/m3], [2]
Conditions | 278.15 K | 288.15 K | 298.15 K | 308.15 K | 318.15 K
x1 = 0.001848 | 903.83 | 893.06 | 882.16 | 871.13 | 859.96
x1 = 0.003689 | 903.96 | 893.18 | 882.28 | 871.25 | 860.08
x1 = 0.005866 | 904.1 | 893.33 | 882.43 | 871.4 | 860.22
x1 = 0.008339 | 904.27 | 893.5 | 882.59 | 871.56 | 860.38
x1 = 0.01068 | 904.43 | 893.65 | 882.75 | 871.72 | 860.54
x1 = 0.01396 | 904.65 | 893.88 | 882.97 | 871.93 | 860.76
x1 = 0.01768 | 904.91 | 894.13 | 883.23 | 872.19 | 861
x1 = 0.0203 | 905.09 | 894.31 | 883.4 | 872.36 | 861.18
x1 = 0.02398 | 905.35 | 894.57 | 883.66 | 872.62 | 861.43
x1 = 0.02882 | 905.69 | 894.9 | 883.99 | 872.95 | 861.76
x1 = 0.03403 | 906.06 | 895.27 | 884.36 | 873.31 | 862.11
x1 = 0.03668 | 906.25 | 895.46 | 884.55 | 873.49 | 862.3
x1 = 0.04255 | 906.67 | 895.88 | 884.96 | 873.91 | 862.71
